Results reported in ChEMBL document CHEMBL3871282, “Neo-tanshinlactone D-ring modified novel analogues induce apoptosis in human breast cancer cell via DNA damage” (Bioorg Med Chem, 2017).
Activity calls are given as the source filed them. No cut-off for these calls is given here.

Experiments:
MCF7 [1] = assay: Induction of DNA double strand breaks in human MCF7 cells assessed as increase in H2AX to gamma-H2AX ratio at near IC50 after 24 hrs by Western blot analysis relative to control; format: cell-based
MCF7 [2] = assay: Induction of DNA damage-mediated apoptosis in human MCF7 cells assessed as Rb hypo-phosphorylation after 24 hrs by immunoblot analysis; format: cell-based
[3] = Cytotoxicity against human HCT116 cells assessed as cell growth inhibition after 24 hrs by MTT assay; format: functional, cell-based; details: HCT-116, 24 h
MCF7 [4] = assay: Induction of DNA damage-mediated apoptosis in human MCF7 cells assessed as delocalization of HDAC3 from nuclear to cytoplasm at 8 to 16 nM after 24 hrs by DAPI staining based immunocytochemistry analysis; format: cell-based
[5] = Cytotoxicity against human HeLa cells assessed as cell growth inhibition after 24 hrs by MTT assay; format: functional, cell-based
MCF7 [6] = assay: (§1) Cytotoxicity against human MCF7 ER positive, PR positive/negative,HER2 negative cells assessed as cell growth inhibition after 24 hrs by MTT assay; format: functional, cell-based
[7] = as §1; format: functional, cell-based; details: MCF7, 24 h
MCF7 [8] = assay: Induction of DNA damage-mediated apoptosis in human MCF7 cells assessed as decrease in HDAC2 expression in cytoplasmic fraction at 8 to 16 nM after 24 hrs by immunoblot analysis; format: cell-based
[9] = Cytotoxicity against human SKBR3 ER negative, PR negative,HER2 positive cells assessed as cell growth inhibition after 24 hrs by MTT assay; format: functional, cell-based; details: SK-BR-3, 24 h
MCF7 [10] = assay: Induction of DNA double strand breaks in human MCF7 cells assessed as activation of phosphorylated p53 at ser15 residue after 24 hrs immunoblot analysis; format: cell-based
[11] = Cell cycle arrest in human MCF7 cells assessed as G2/M phase at 8 nM after 24 hrs by propidium iodide staining based FACS analysis (reference value: 28.3%); format: functional
Bos taurus [12] = species: Bos taurus; assay: Binding affinity to calf thymus DNA assessed hyperchromic shift at 260 nm up to 1:1 compound to DNA ratio measured by UV-Vis spectrophotometric analysis
MCF7 [13] = assay: Induction of apoptosis in human MCF7 cells assessed as late apoptotic cells at 16 nM after 24 hrs by Annexin V-FITC/propidium iodide-dual staining based FACS analysis (reference value: 0.1%); format: functional
MCF7 [14] = assay: Induction of DNA damage-mediated apoptosis in human MCF7 cells assessed as cleavage of caspase-3 after 24 hrs by immunoblot analysis; format: cell-based
MCF7 [15] = assay: Induction of DNA damage-mediated apoptosis in human MCF7 cells assessed as activation of p38 at 12 nM up to 4 hrs by immunoblot analysis; format: cell-based
[16] = Cell cycle arrest in human MCF7 cells assessed as G0/G1 phase at 12 nM after 24 hrs by propidium iodide staining based FACS analysis (reference value: 43.9%); format: functional
[17] = Cell cycle arrest in human MCF7 cells assessed as S phase at 12 nM after 24 hrs by propidium iodide staining based FACS analysis (reference value: 27.5%); format: functional
MCF7 [18] = assay: Induction of DNA double strand breaks in human MCF7 cells assessed as increase in H2AX to gamma-H2AX ratio at near IC50 after 24 hrs by DAPI staining-based immunocytochemistry analysis relative to control; format: cell-based
MCF7 [19] = assay: Induction of DNA double strand breaks in human MCF7 cells assessed as increase in apoptotic nuclei after 24 hrs by TUNEL assay; format: cell-based
MCF7 [20] = assay: Induction of DNA damage-mediated apoptosis in human MCF7 cells assessed as increase in HDAC3 expression in cytoplasmic fraction at 8 to 16 nM after 24 hrs by immunoblot analysis; format: cell-based
MCF7 [21] = assay: Induction of DNA damage-mediated apoptosis in human MCF7 cells assessed as activation of ERK1/2 at 12 nM up to 6 hrs by immunoblot analysis; format: cell-based
[22] = Cell cycle arrest in human MCF7 cells assessed as G2/M phase at 12 nM after 24 hrs by propidium iodide staining based FACS analysis (reference value: 28.3%); format: functional
[23] = Cytotoxicity against human HaCaT cells assessed as cell growth inhibition after 24 hrs by MTT assay; format: toxicity, cell-based
MCF7 [24] = assay: Binding affinity to DNA in human MCF7 cells assessed as formation of DNA double strand breaks after 24 hrs by alkaline comet assay; format: cell-based
Bos taurus [25] = species: Bos taurus; assay: Binding affinity to calf thymus DNA assessed as DNA positive band formation at 1:1 compound to DNA ratio by circular dichroism method
MCF7 [26] = assay: Disruption of mitochondrial membrane potential in human MCF7 cells assessed as decrease in red/green fluorescence ratio at 8 to 16 nM after 24 hrs by JC1-staining based fluorescent microscopic analysis; format: functional, cell-based
MCF7 [27] = assay: Induction of apoptosis in human MCF7 cells assessed as early apoptotic cells at 8 nM after 24 hrs by Annexin V-FITC/propidium iodide-dual staining based FACS analysis (reference value: 2.3%); format: functional
[28] = Induction of DNA damage-mediated apoptosis in human MCF7 cells assessed as upregulation of cytochrome c after 24 hrs by immunoblot analysis; format: cell-based
[29] = Cytotoxicity against human MDA-MB-231 ER negative, PR negative,HER2 negative cells assessed as cell growth inhibition after 24 hrs by MTT assay; format: functional, cell-based; details: MDA-MB-231, 24 h
MCF7 [30] = assay: Induction of apoptosis in human MCF7 cells at IC50 after 24 hrs by Annexin V/7AAD-dual staining based fluorescent microscopic analysis; format: functional
[31] = Cell cycle arrest in human MCF7 cells assessed as S phase at 8 nM after 24 hrs by propidium iodide staining based FACS analysis (reference value: 27.5%); format: functional
MCF7 [32] = assay: Binding affinity to DNA in human MCF7 cells assessed as formation of nuclear DNA double strand breaks at 12 nM after 24 hrs by DAPI-staining based fluorescence microscopic analysis; format: cell-based
MCF7 [33] = assay: Induction of DNA double strand breaks in human MCF7 cells assessed as activation of phosphorylated ATM at ser1981 residue after 24 hrs immunoblot analysis; format: cell-based
Bos taurus [34] = species: Bos taurus; assay: Inhibition of DAPI binding to calf thymus DNA at 10 to 50 uM measured at 460 nm by fluorescence spectroscopic method
MCF7 [35] = assay: Induction of DNA double strand breaks in human MCF7 cells assessed as increase in H2AX to gamma-H2AX ratio after 24 hrs by Western blot analysis; format: cell-based
MCF7 [36] = assay: Induction of DNA damage-mediated apoptosis in human MCF7 cells assessed as cleaved PARP after 24 hrs by immunoblot analysis; format: cell-based
Escherichia coli = assay: Induction of Escherichia coli supercoiled pBR322 DNA cleavage assessed as increase in open circular form of DNA band after 3 hrs by ethidium bromide staining based agarose gel electrophoresis method
MCF7 [37] = assay: Induction of DNA double strand breaks in human MCF7 cells assessed as H2AX phosphorylation at near IC50 after 24 hrs by Western blot analysis; format: cell-based
MCF7 [38] = assay: Induction of DNA damage-mediated apoptosis in human MCF7 cells assessed as downregulation of HDAC1 after 24 hrs by DAPI staining based immunocytochemistry analysis; format: cell-based
MCF7 [39] = assay: Induction of DNA damage-mediated apoptosis in human MCF7 cells assessed as decrease in HDAC2 levels in nuclear fraction at 8 to 16 nM after 24 hrs by immunoblot analysis; format: cell-based

Compound: O=c1cc(OCc2ccccc2)c2ccc3ccccc3c2[nH]1
- fold change (FC) (MCF7 [1]): 6.3
- Activity (MCF7 [2]): Dose-dependent effect
- IC50 [3]: 44.1 nM
- Activity (MCF7 [4]): Active
- IC50 [5]: 52100 nM
- growth inhibition (GI) (MCF7 [6]): Dose-dependent effect
- IC50 [7]: 12 nM
- Activity (MCF7 [8]): Active
- IC50 [9]: 23.7 nM
- Activity (MCF7 [10]): Dose-dependent effect
- Activity [11]: 19%
- Activity (Bos taurus [12]): Active
- Activity (MCF7 [13]): 5.6%
- Activity (MCF7 [14]): Dose-dependent effect
- Activity (MCF7 [15]): Active
- Activity [16]: 58.1%
- Activity [17]: 25.1%
- fold change (FC) (MCF7 [18]): 11
- Activity (MCF7 [19]): Dose-dependent effect
- Activity (MCF7 [20]): Active
- Activity (MCF7 [21]): Active
- Activity [22]: 16.2%
- IC50 at 24 h [23]: > 100000 nM
- Activity (MCF7 [24]): Dose-dependent effect
- Activity (Bos taurus [25]): Active
- Activity (MCF7 [26]): Active
- Activity (MCF7 [27]): 10.9%
- Activity [28]: Dose-dependent effect
- IC50 [29]: 62.9 nM
- Activity (MCF7 [30]): 44.78%
- Activity [31]: 25.8%
- Activity (MCF7 [32]): Active
- Activity (MCF7 [33]): Dose-dependent effect
- inhibition (Bos taurus [34]): Active
- Activity (MCF7 [35]): Dose-dependent effect
- Activity (MCF7 [36]): Dose-dependent effect
- Activity (Escherichia coli): Dose-dependent effect
- Activity (MCF7 [37]): Active
- Activity (MCF7 [38]): Dose-dependent effect
- Activity (MCF7 [39]): Active
